# Laboratory results from ChEMBL document CHEMBL5126603, “Discovery of Clinical Candidate CHF-6366: A Novel Super-soft Dual Pharmacology Muscarinic Antagonist and β2 Agonist (MABA) for the Inhaled Treatment of Respiratory Diseases” (J Med Chem, 2022).
# Columns and labels:
# [1] = Metabolic stability in Dunkin-Hartley guinea pig plasma assessed as half life at 5 uM measured upto 120 mins by LC-MS/MS analysis; assay type: ADME, cell-free, Cavia porcellus
# [2] = Tmax in Dunkin-Hartley guinea pig plasma at 500 nmol/Kg, IT(Intratracheal) measured after 72 hrs by LC/MS-MS analysis; assay type: ADME, cell-free, Cavia porcellus; conditions: inhaled or intranasal
# Trachea [3] = test: (§1) Bifunctional antagonist activity at muscarinic M3 receptor /agonist activity at beta-2 adrenoceptor in Dunkin-Hartley guinea pig trachea assessed as inhibition of acetylcholine-induced bronchoconstriction at 0.1 nmol/Kg, IT(Intratracheal) measured after 30 mins by Konzett-Roessler methodology relative to control; assay type: functional; conditions: Cavia porcellus, 0.5 h
# Trachea [4] = test: In vivo bifunctional antagonist activity at muscarinic M3 receptor /agonist activity at beta-2 adrenoceptor in Dunkin-Hartley guinea pig trachea assessed as time duration for inhibition of carbachol induced contraction measured […]; assay type: functional, Cavia porcellus
# [5] = Metabolic stability in human hepatocytes assessed as clearance at 1 uM measured per 10^6 cells and incubated upto 90 mins by LC-MS/MS analysis; assay type: ADME, cell-based, Hepatocyte; conditions: read-out: CLH
# [6] = Half life in Dunkin-Hartley guinea pig plasma at 500 nmol/Kg, IT(Intratracheal) measured after 72 hrs by LC/MS-MS analysis; assay type: ADME, cell-free, Cavia porcellus; conditions: inhaled or intranasal
# [7] = AUClast in Dunkin-Hartley guinea pig plasma at 500 nmol/Kg, IT(Intratracheal) measured after 72 hrs by LC/MS-MS analysis; assay type: ADME, cell-free, Cavia porcellus; set-up: time 72 hrs, dose 500 nmol/kg, route it(Intratracheal); conditions: inhaled or intranasal
# Trachea [8] = test: as §1, with “acetylcholine induced” for “acetylcholine-induced”, “1” for “0.1”, “24 hr” for “30 mins”; assay type: functional; conditions: Cavia porcellus
# [9] = biological target: L-type calcium channel phenylalkylamine site (Homo sapiens, UniProt O60840+Q01668+Q13698+Q13936); test: Inhibition of L-type calcium channel phenylalkylamine site (unknown origin) at 10 uM relative to control; assay type: protein assay
# [10] = Metabolic stability in human lung S9 fraction assessed as half life at 1 uM measured after 0 to 60 mins in presence of NADPH by LC-MS/MS analysis; assay type: ADME, subcellular; conditions: time 0-60 min
# Trachea [11] = test: as §1, with “15” for “30”; assay type: functional; conditions: Cavia porcellus, 0.25 h
# [12] = Apparent permeability across basolateral to apical side in human Caco-2 cells at 10 uM and measured after 2 hrs by LC-MS/MS analysis; assay type: ADME, cell-based
# [13] = AUClast in Dunkin-Hartley guinea pig lung at 500 nmol/Kg, IT(Intratracheal) measured after 72 hrs by LC/MS-MS analysis; assay type: ADME, tissue-based, Cavia porcellus; conditions: in vivo, inhaled_or_intranasal
# [14] = biological target: T1, 5-hydroxytryptamine receptor 2C (Homo sapiens) (UniProt P28335); test: Inhibition of 5-HT2c (unknown origin) at 10 uM relative to control
# T1 sequence (whole entry): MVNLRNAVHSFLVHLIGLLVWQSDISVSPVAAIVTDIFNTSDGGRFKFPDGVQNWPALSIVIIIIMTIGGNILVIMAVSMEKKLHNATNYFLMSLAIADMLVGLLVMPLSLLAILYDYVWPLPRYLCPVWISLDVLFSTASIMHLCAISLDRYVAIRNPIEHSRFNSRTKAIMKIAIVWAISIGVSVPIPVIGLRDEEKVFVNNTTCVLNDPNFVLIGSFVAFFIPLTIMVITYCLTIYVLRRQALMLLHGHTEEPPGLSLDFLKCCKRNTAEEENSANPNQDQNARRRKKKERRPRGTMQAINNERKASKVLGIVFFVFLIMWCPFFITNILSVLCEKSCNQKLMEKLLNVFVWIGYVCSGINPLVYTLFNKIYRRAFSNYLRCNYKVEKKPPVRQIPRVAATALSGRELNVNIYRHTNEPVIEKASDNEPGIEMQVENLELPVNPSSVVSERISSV
# [15] = In vivo antagonist activity at muscarinic M3 receptor in Dunkin-Hartley guinea pig trachea assessed as inhibition of acetylcholine induced bronchoconstriction at 1 nmol/Kg, IT(Intratracheal) measured after 24 hr in presence of ICI-118551 by Konzett-Roessler methodology relative to control; assay type: functional; conditions: Cavia porcellus
# Trachea [16] = test: as §1, with “1” for “0.1”, “5” for “30”; assay type: functional; conditions: Cavia porcellus
# [17] = Metabolic stability in human plasma assessed as half life at 5 uM measured upto 120 mins by LC-MS/MS analysis; assay type: ADME, cell-free
# [18] = In vivo agonist activity at beta-2 adrenoceptor in Dunkin-Hartley guinea pig trachea assessed as inhibition of histamine induced bronchoconstriction at 1 nmol/Kg, IT(Intratracheal) measured after 1 hr by Konzett-Roessler methodology relative to control; assay type: functional; conditions: Cavia porcellus
# [19] = Mutagenicity in Escherichia coli assessed as induction of reverse mutation by Ames test; assay type: toxicity
# [20] = Apparent permeability across apical to basolateral side in human Caco-2 cells at 10 uM and measured after 2 hrs by LC-MS/MS analysis; assay type: ADME, cell-based
# Trachea [21] = test: as §1, with “5” for “30”; assay type: functional; conditions: Cavia porcellus
# [22] = AUCinfinity in Dunkin-Hartley guinea pig lung at 500 nmol/Kg, IT(Intratracheal) measured after 72 hrs by LC/MS-MS analysis; assay type: ADME, tissue-based, Cavia porcellus; set-up: dose 500 nmol/kg, time 72 hrs, route it(Intratracheal); conditions: in vivo, inhaled_or_intranasal
# [23] = Cmax in Dunkin-Hartley guinea pig lung at 500 nmol/Kg, IT(Intratracheal) measured after 72 hrs by LC/MS-MS analysis; assay type: ADME, tissue-based, Cavia porcellus; set-up: time 72 hrs, dose 500 nmol/kg, route it(Intratracheal); conditions: inhaled or intranasal
# [24] = In vivo agonist activity at beta-2 adrenoceptor in Dunkin-Hartley guinea pig trachea assessed as inhibition of histamine induced bronchoconstriction at 1 nmol/Kg, IT(Intratracheal) measured after 24 hr by Konzett-Roessler methodology relative to control; assay type: functional; conditions: Cavia porcellus
# Trachea [25] = test: as §1, with “1” for “0.1”; assay type: functional; conditions: Cavia porcellus, 0.5 h
# Trachea [26] = test: as §1, with “acetylcholine induced” for “acetylcholine-induced”, “1” for “0.1”, “1 hr” for “30 mins”; assay type: functional; conditions: Cavia porcellus
# Trachea [27] = test: as §1, with “0.3” for “0.1”, “15” for “30”; assay type: functional; conditions: Cavia porcellus, 0.25 h
# [28] = Tmax in Dunkin-Hartley guinea pig lung at 500 nmol/Kg, IT(Intratracheal) measured after 72 hrs by LC/MS-MS analysis; assay type: ADME, tissue-based, Cavia porcellus; conditions: inhaled or intranasal
# [29] = Metabolic stability in rat plasma assessed as half life at 5 uM measured upto 120 mins by LC-MS/MS analysis; assay type: ADME, cell-free
# Trachea [30] = test: as §1, with “1” for “0.1”, “15” for “30”; assay type: functional; conditions: Cavia porcellus, 0.25 h
# [31] = In vivo antagonist activity at muscarinic M3 receptor in Dunkin-Hartley guinea pig trachea assessed as inhibition of acetylcholine induced bronchoconstriction at 1 nmol/Kg, IT(Intratracheal) measured after 1 hr in presence of ICI-118551 by Konzett-Roessler methodology relative to control; assay type: functional; conditions: Cavia porcellus
# Trachea [32] = test: as §1, with “0.3” for “0.1”, “5” for “30”; assay type: functional; conditions: Cavia porcellus
smiles,measurement,setting,value
Cn1nc(C(=O)OCCCCNC[C@H](O)c2ccc(O)c3[nH]c(=O)ccc23)cc1COc1cccc([C@@H](NC(=O)O[C@H]2CN3CCC2CC3)c2ccccc2)c1,half-life at 5 µM,[1],34 min
same,Tmax,[2],4.98 min
same,inhibition in vivo at 0.0001 µmol/kg,Trachea [3],33.1%
same,Time,Trachea [4],>225 min
same,hepatocyte CLint at 1 µM,[5],33 µL/min/1e6 cells
same,half-life,[6],924 min
same,AUC(0-t) at 72 h,[7],460 ng·h/mL
same,inhibition in vivo at 0.001 µmol/kg,Trachea [8],74.8%
same,inhibition at 10 µM,[9],> 65%
same,half-life at 1 µM,[10],> 120 min
same,inhibition in vivo at 0.0001 µmol/kg,Trachea [11],25.1%
same,"Papp B→A at 2 h, 10 µM",[12],1.5 ×10⁻⁶ cm/s
same,AUClast,[13],460361 ng·h/g
same,inhibition,[14],> 65%
same,inhibition in vivo at 0.001 µmol/kg,[15],47.2%
same,inhibition in vivo at 0.001 µmol/kg,Trachea [16],90.1%
same,half-life at 5 µM,[17],20 min
same,inhibition in vivo at 0.001 µmol/kg,[18],69.8%
same,Activity,[19],Non-Toxic
same,"Papp A→B at 2 h, 10 µM",[20],2.4 ×10⁻⁶ cm/s
same,inhibition in vivo at 0.0001 µmol/kg,Trachea [21],9.7%
same,AUC,[22],725199 ng·h/g
same,Cmax,[23],28400 ng/g
same,inhibition in vivo at 0.001 µmol/kg,[24],50.1%
same,inhibition in vivo at 0.001 µmol/kg,Trachea [25],90.8%
same,inhibition in vivo at 0.001 µmol/kg,Trachea [26],92.4%
same,inhibition in vivo at 0.0003 µmol/kg,Trachea [27],66.2%
same,Tmax,[28],4.98 min
same,half-life at 5 µM,[29],< 5 min
same,inhibition in vivo at 0.001 µmol/kg,Trachea [30],91.3%
same,inhibition in vivo at 0.001 µmol/kg,[31],84.1%
same,inhibition in vivo at 0.0003 µmol/kg,Trachea [32],56.6%
